From PubChem BioAssay (NCI)
Where “and” joins values, the source holds several entries; their conditions need not be identical. Equal entries are not always repeated.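 Step 1: Grow cells in 96-well plates. Step 2: Expose to compound for 48 hours at 5 concentrations. Step 3: Interpolate endpoints linearly; if unreached, use highest concentration. GI50 = concentration required for 50% inhibition of growth. TGI denotes the concentration required for complete inhibition of growth.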 Where a SMILES comes first, the peptide text is derived from it. [ ]: non-standard residue; d: D form. The star is where a group is joined. ξ: configuration not given here. X3 = COc1ccc(C(N*)c2ccc(OC)cc2)cc1; NMeF = CN[C@@H](Cc1ccccc1)C(=O)O; NMeD = CN[C@@H](CC(=O)O)C(=O)O; NMeV = CN[C@H](C(=O)O)C(C)C; ξNMeV = CNC(C(=O)O)C(C)C; Boc = CC(C)(C)OC(=O)*; ξNMeA = CNC(C)C(=O)O; ξV = CC(C)C(N)C(=O)O

Tests used:
Experiment in all cases: NCI anticancer screen, dose series, 48 h
[1] = tested on: CAKI-1 renal
[2] = tested on: U251 CNS
[3] = tested on: NCI/ADR-RES ovarian
[4] = tested on: SR leukemia
[5] = tested on: HCT-116 colon
[6] = tested on: M14 melanoma
[7] = tested on: HS 578T breast
[8] = tested on: MDA-MB-435
[9] = tested on: MDA-MB-231 breast
[10] = tested on: UACC-62 melanoma

Row | Structure (SMILES) | TGI [1] | TGI [2] | TGI [3] | TGI [4] | TGI [5] | TGI [6] | TGI [7] | TGI [8] | TGI [9] | TGI [10] | GI50 [2] | GI50 [3] | GI50 [4] | GI50 [6] | GI50 [7] | GI50 [8] | GI50 [9] | GI50 [10] | GI50 [1] | GI50 [5]
1 | CC(=O)CC(OC(C)=O)C1=CCC2C(CC1C)OC(=O)C2C (configuration not stated) | > 100 µM | > 100 µM | > 100 µM | > 100 µM | > 100 µM | > 100 µM | > 100 µM | > 100 µM | > 100 µM | > 100 µM |  |  |  |  |  |  |  |  |  | 
2 | O=C(/C(=C/c1ccc([N+](=O)[O-])cc1)SCc1ccccc1)c1ccc(Cl)cc1 |  | 4.09 µM | 17.7 µM | 6.63 µM |  | 8.59 µM | 8.2 µM | 11.4 µM | 10.2 µM | 9.12 µM | 1.88 µM | 3.38 µM | 1.76 µM | 2.63 µM | 2.4 µM | 3.22 µM | 2.67 µM | 2.56 µM |  | 
3 | C[C@]12CCC3c4ccc(O)cc4CCC3C1CC[C@@]2(O)CNC(=O)/C=C/c1ccc(O)c(O)c1 (some centres not stated) | 33 µM | 10.6 µM | > 100 µM | 26.7 µM | 11.2 µM | 22.5 µM | 30.8 µM | 8.07 µM | 16.4 µM | 17 µM | 3.02 µM | 23.9 µM | 5.66 µM | 10.1 µM | 6.24 µM | 3.01 µM | 3.58 µM | 5.22 µM | 11.7 µM | 3.34 µM
4 | COc1ccc(C(NC(=O)C[C@@H](C(=O)N(C)C(C)C(=O)O)N(C)C(=O)[C@@H]2CCCN2C(=O)[C@H](C(C)C)N(C)C(=O)C(C(C)C)N(C)C(=O)[C@H](Cc2ccccc2)N(C)C(=O)C(NC(=O)OC(C)(C)C)C(C)C)c2ccc(OC)cc2)cc1 (some centres not stated) (Boc-[ξV][NMeF][ξNMeV][NMeV]P[NMeD](X3)[ξNMeA]-OH) | 37.5 µM | 23.6 µM and 35.7 µM | > 37.5 µM | 37.5 µM and 36 µM | 36.2 µM and 34.6 µM | 28.6 µM and 31.1 µM | 7.32 µM | 20 µM | 32.3 µM | 12.5 µM and 20.9 µM | 19.4 µM |  | 0.00375 µM | 17.4 µM |  |  |  | 0.803 µM | 22.9 µM | 17.3 µM
5 | O=C(O)c1ccc2c(c1C(=O)O)C(=O)OC2(c1ccc(O)cc1)c1ccc(O)cc1 | > 100 µM | > 100 µM | > 100 µM | > 100 µM | > 100 µM | > 100 µM | > 100 µM | > 100 µM | > 100 µM | > 100 µM |  |  |  |  |  |  |  |  |  | 
6 | CCN(Cc1ccc(F)cc1)c1cc(Cl)c(CO)c(Cl)c1 | 32.1 µM | 22.6 µM | 31.4 µM | 39.6 µM | 18.7 µM | 35 µM | 33.4 µM | 37 µM | 26.7 µM | 17.9 µM | 10.5 µM | 13.7 µM | 15.4 µM | 17 µM | 12.2 µM | 17.9 µM | 13 µM | 4.98 µM | 13.5 µM | 5.15 µM
